Experimental data taken from patent publication US9695155B2, “Herbicidal substituted pyrimidinyloxy benzene compounds” (E. I. DU PONT DE NEMOURS AND COMPANY, priority 2013, dated 2017).

Assays:
barnyardgrass [1] = experiment: Test B flooded paddy test; type: in vivo, Echinochloa crus-galli; conditions: Flood, 250 g ai/ha; 0 to 100 scale where 0 is no effect and 100 is complete control
Outline: (§1)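 Greenhouse flooded-pot test: compounds dosed into 3 cm standing water over 2-leaf plants, flood held constant. Rated visually after 13–15 days on 0–100 (complete control = 100); a dash marks no test result.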

sedge, umbrella = experiment: Test B flooded paddy test; type: in vivo, Cyperus difformis; conditions: Flood, 250 g ai/ha; 0 to 100 scale where 0 is no effect and 100 is complete control
Outline: as §1

pigweed [2] = experiment: Test A preemergence; type: in vivo, Amaranthus retroflexus; conditions: for Plant response rating, Pigweed: 31 g ai/ha, 0 to 100 scale where 0 is no effect and 100 is complete control, visual, approximately 10 days; for Pigweed plant response rating (0 to 100 scale): 125 g ai/ha
Outline: (§2)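 Pre- and postemergence greenhouse screen. Soil: loam + sand. Spray carrier: solvent mixture, non-phytotoxic, with surfactant. Post timing at 1–2 leaves, height 2–10 cm. Readout: visual injury on a 0–100 scale roughly 10 days after application, untreated plants as reference.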

Italian ryegrass [3] = experiment: Test A postemergence; type: in vivo, Lolium multiflorum; conditions: 0 to 100 scale, 0 no effect, 100 complete control
Outline: as §2

pigweed [4] = experiment: Test A postemergence; type: in vivo, Amaranthus retroflexus; conditions: 0 to 100 scale, 0 no effect, 100 complete control
Outline: as §2

giant foxtail [5] = experiment: Test A postemergence; type: in vivo, Setaria faberii; conditions: 0 to 100 scale, 0 no effect, 100 complete control
Outline: as §2

corn = experiment: Test A postemergence; type: in vivo, Zea mays; conditions: 0 to 100 scale, 0 no effect, 100 complete control
Outline: as §2

rice = experiment: Test B flooded paddy test; type: in vivo, Oryza sativa; conditions: Flood, 250 g ai/ha; 0 to 100 scale where 0 is no effect and 100 is complete control
Outline: as §1

barnyardgrass [6] = experiment: Test A preemergence; type: in vivo, Echinochloa crus-galli; conditions: for Plant response rating, Barnyardgrass: 31 g ai/ha, 0 to 100 scale where 0 is no effect and 100 is complete control, visual, approximately 10 days; for Barnyardgrass plant response rating (0 to 100 scale, 0 is no effect, 100 is complete control): 125 g ai/ha
Outline: as §2

kochia [7] = experiment: Test A preemergence; type: in vivo, Kochia scoparia; conditions: for Plant response rating, Kochia: 31 g ai/ha, 0 to 100 scale where 0 is no effect and 100 is complete control, visual, approximately 10 days; for Kochia plant response rating (0 to 100 scale): 125 g ai/ha
Outline: as §2

giant foxtail [8] = experiment: Test A preemergence; type: in vivo, Setaria faberii; conditions: for Plant response rating, Foxtail, Giant: 31 g ai/ha, 0 to 100 scale where 0 is no effect and 100 is complete control, visual, approximately 10 days; for Foxtail, Giant plant response rating (0 to 100 scale): 125 g ai/ha
Outline: as §2

wheat = experiment: Test A postemergence; type: in vivo, Triticum aestivum; conditions: 0 to 100 scale, 0 no effect, 100 complete control
Outline: as §2

Heteranthera limosa = experiment: Test B flooded paddy test; type: in vivo; conditions: Flood, 250 g ai/ha; 0 to 100 scale where 0 is no effect and 100 is complete control
Outline: as §1

barnyardgrass [9] = experiment: Test A postemergence; type: in vivo, Echinochloa crus-galli; conditions: 0 to 100 scale, 0 no effect, 100 complete control
Outline: as §2

Italian ryegrass [10] = experiment: Test A preemergence; type: in vivo, Lolium multiflorum; conditions: for Plant response rating, Ryegrass, Italian: 31 g ai/ha, 0 to 100 scale where 0 is no effect and 100 is complete control, visual, approximately 10 days; for Ryegrass, Italian plant response rating (0 to 100 scale): 125 g ai/ha
Outline: as §2

galium = experiment: Test A postemergence; type: in vivo, Galium aparine; conditions: 0 to 100 scale, 0 no effect, 100 complete control
Outline: as §2

ragweed [11] = experiment: Test A postemergence; type: in vivo, Ambrosia elatior; conditions: 0 to 100 scale, 0 no effect, 100 complete control
Outline: as §2

blackgrass = experiment: Test A postemergence; type: in vivo, Alopecurus myosuroides; conditions: 0 to 100 scale, 0 no effect, 100 complete control
Outline: as §2

ragweed [12] = experiment: Test A preemergence; type: in vivo, Ambrosia elatior; conditions: for Plant response rating, Ragweed: 31 g ai/ha, 0 to 100 scale where 0 is no effect and 100 is complete control, visual, approximately 10 days; for Ragweed plant response rating (0 to 100 scale): 125 g ai/ha
Outline: as §2

kochia [13] = experiment: Test A postemergence; type: in vivo, Kochia scoparia; conditions: 0 to 100 scale, 0 no effect, 100 complete control
Outline: as §2

Row | SMILES | Plant response rating, Barnyardgrass (barnyardgrass [1]) | Plant response rating, Sedge, Umbrella (sedge, umbrella) | Plant response rating, Pigweed (pigweed [2]) | Pigweed plant response rating (0 to 100 scale) (pigweed [2]) | Plant response rating, Ryegrass, Italian (Italian ryegrass [3]; 31 g ai/ha) | Plant response rating, Ryegrass, Italian (Italian ryegrass [3]; 125 g ai/ha) | Plant response rating, Pigweed (pigweed [4]; 31 g ai/ha) | Plant response rating, Pigweed (pigweed [4]; 125 g ai/ha) | Plant response rating, Foxtail, Giant (giant foxtail [5]; 31 g ai/ha) | Plant response rating, Foxtail, Giant (giant foxtail [5]; 125 g ai/ha) | Plant response rating, Corn (corn; 31 g ai/ha) | Plant response rating, Corn (corn; 125 g ai/ha) | Plant response rating, Rice (rice) | Plant response rating, Barnyardgrass (barnyardgrass [6]) | Barnyardgrass plant response rating (0 to 100 scale, 0 is no effect, 100 is complete control) (barnyardgrass [6]) | Plant response rating, Kochia (kochia [7]) | Kochia plant response rating (0 to 100 scale) (kochia [7]) | Plant response rating, Foxtail, Giant (giant foxtail [8]) | Foxtail, Giant plant response rating (0 to 100 scale) (giant foxtail [8]) | Plant response rating, Wheat (wheat; 31 g ai/ha) | further results
1 | Cc1cc(C(F)F)nn1-c1ccccc1Oc1ncc(Cl)cn1 [Compound 267] | 0 | 0 | 0 | 0 | 0 | 0 | 0 | 0 | 0 | 0 | 0 | 0 | 0 | 0 | 0 | 0 | 0 | 0 | 0 | 0 | Plant response rating, Wheat (wheat; 125 g ai/ha): 0; Plant response rating, Ducksalad (Heteranthera limosa): 0; Plant response rating, Barnyardgrass (barnyardgrass [9]; 31 g ai/ha): 0; Plant response rating, Barnyardgrass (barnyardgrass [9]; 125 g ai/ha): 0; Plant response rating, Ryegrass, Italian (Italian ryegrass [10]): 0; Ryegrass, Italian plant response rating (0 to 100 scale) (Italian ryegrass [10]): 0; Plant response rating, Galium (galium; 31 g ai/ha): 0; Plant response rating, Galium (galium; 125 g ai/ha): 10; Plant response rating, Ragweed (ragweed [11]; 31 g ai/ha): 0; Plant response rating, Ragweed (ragweed [11]; 125 g ai/ha): 0; Plant response rating, Blackgrass (blackgrass; 31 g ai/ha): 0; Plant response rating, Blackgrass (blackgrass; 125 g ai/ha): 0; Plant response rating, Ragweed (ragweed [12]): 0; Ragweed plant response rating (0 to 100 scale) (ragweed [12]): 0; Plant response rating, Kochia (kochia [13]; 31 g ai/ha): 0; Plant response rating, Kochia (kochia [13]; 125 g ai/ha): 0
2 | Clc1cnc(Oc2ccccc2-n2cccc2)nc1 [Compound 269] | 0 | 0 | 0 | 0 | 0 | 0 | 0 | 0 | 0 | 0 | 0 | 0 | 0 | 0 | 0 | 0 | 0 | 0 | 0 | 0 | Plant response rating, Wheat (wheat; 125 g ai/ha): 0; Plant response rating, Ducksalad (Heteranthera limosa): 0; Plant response rating, Barnyardgrass (barnyardgrass [9]; 31 g ai/ha): 0; Plant response rating, Barnyardgrass (barnyardgrass [9]; 125 g ai/ha): 0; Plant response rating, Ryegrass, Italian (Italian ryegrass [10]): 0; Ryegrass, Italian plant response rating (0 to 100 scale) (Italian ryegrass [10]): 0; Plant response rating, Galium (galium; 31 g ai/ha): 0; Plant response rating, Galium (galium; 125 g ai/ha): 0; Plant response rating, Ragweed (ragweed [11]; 31 g ai/ha): 0; Plant response rating, Ragweed (ragweed [11]; 125 g ai/ha): 0; Plant response rating, Blackgrass (blackgrass; 31 g ai/ha): 0; Plant response rating, Blackgrass (blackgrass; 125 g ai/ha): 0; Plant response rating, Ragweed (ragweed [12]): 0; Ragweed plant response rating (0 to 100 scale) (ragweed [12]): 0; Plant response rating, Kochia (kochia [13]; 31 g ai/ha): 0; Plant response rating, Kochia (kochia [13]; 125 g ai/ha): 0
3 | Fc1cccc(Oc2ncc(Cl)cn2)c1-n1cc(-c2ccsc2)nn1 [Compound 277] | 0 | 80 | 30 | 60 | 30 | 50 | 60 | 70 | 40 | 70 | 0 | 20 | 0 | 0 | 0 | 0 | 0 | 30 | 70 | 0 | Plant response rating, Wheat (wheat; 125 g ai/ha): 0; Plant response rating, Ducksalad (Heteranthera limosa): 80; Plant response rating, Barnyardgrass (barnyardgrass [9]; 31 g ai/ha): 20; Plant response rating, Barnyardgrass (barnyardgrass [9]; 125 g ai/ha): 40; Plant response rating, Ryegrass, Italian (Italian ryegrass [10]): 0; Ryegrass, Italian plant response rating (0 to 100 scale) (Italian ryegrass [10]): 0; Plant response rating, Galium (galium; 31 g ai/ha): 100; Plant response rating, Galium (galium; 125 g ai/ha): 100; Plant response rating, Ragweed (ragweed [11]; 31 g ai/ha): 50; Plant response rating, Ragweed (ragweed [11]; 125 g ai/ha): 60; Plant response rating, Blackgrass (blackgrass; 31 g ai/ha): 30; Plant response rating, Blackgrass (blackgrass; 125 g ai/ha): 50; Plant response rating, Ragweed (ragweed [12]): 0; Ragweed plant response rating (0 to 100 scale) (ragweed [12]): 0; Plant response rating, Kochia (kochia [13]; 31 g ai/ha): 60; Plant response rating, Kochia (kochia [13]; 125 g ai/ha): 70
4 | NC(=O)c1cccc(Oc2ncc(Cl)cn2)c1-n1cc(C(F)(F)F)cn1 [Compound 278] | 0 | 0 | 0 | 10 | 0 | 0 | 0 | 10 | 0 | 0 | 0 | 0 | 0 | 0 | 0 | 0 | 0 | 0 | 0 | 0 | Plant response rating, Wheat (wheat; 125 g ai/ha): 0; Plant response rating, Ducksalad (Heteranthera limosa): 0; Plant response rating, Barnyardgrass (barnyardgrass [9]; 31 g ai/ha): 0; Plant response rating, Barnyardgrass (barnyardgrass [9]; 125 g ai/ha): 0; Plant response rating, Ryegrass, Italian (Italian ryegrass [10]): 0; Ryegrass, Italian plant response rating (0 to 100 scale) (Italian ryegrass [10]): 0; Plant response rating, Galium (galium; 31 g ai/ha): 0; Plant response rating, Galium (galium; 125 g ai/ha): 10; Plant response rating, Ragweed (ragweed [11]; 31 g ai/ha): 0; Plant response rating, Ragweed (ragweed [11]; 125 g ai/ha): 10; Plant response rating, Blackgrass (blackgrass; 31 g ai/ha): 0; Plant response rating, Blackgrass (blackgrass; 125 g ai/ha): 0; Plant response rating, Ragweed (ragweed [12]): 0; Ragweed plant response rating (0 to 100 scale) (ragweed [12]): 0; Plant response rating, Kochia (kochia [13]; 31 g ai/ha): 0; Plant response rating, Kochia (kochia [13]; 125 g ai/ha): 0
